Assay results as given in publication PMC12845078 (Pharmaceuticals, 2025).
Marks after values point to notes of the source that are not given here.

How the values were obtained:
[1] = Plasma protein binding (rapid equilibrium dialysis), dog; settings: beagle, dog, plasma, pH 7.4
Description: (§3) After incubation for 20 min, a portion of the whole blood was centrifuged at 2500× g for 10 min at 4 °C to separate plasma; another portion of the whole blood was subjected to three cycles of freeze–thawing and ultrasonicated for 10 min to disrupt cells. Equal volumes of plasma and whole blood samples were added to the whole blood and plasma specimens, respectively, followed by protein precipitation with acetonitrile containing an internal standard (IS). […] The RED inserts were placed in the matching incubation plate: 200 µL of drug-containing matrix were added to the sample chamber, and 400 µL of PBS buffer (pH: 7.4) were added to the buffer chamber. After incubation in a constant-temperature shaking incubator for 6 h (37 °C), samples from the sample chamber and buffer chamber were diluted 1:1 with PBS or matrix, respectively, and proteins were precipitated with acetonitrile containing IS.

[2] = Liver microsome protein binding, dog; format: in vitro ADME; settings: beagle, liver microsomes, pH 7.4
Description: as §3

[3] = Brain tissue protein binding, rat; format: in vitro ADME; settings: pH 7.4
Description: as §3

[4] = Plasma protein binding (rapid equilibrium dialysis), rat; format: in vitro ADME; settings: plasma, pH 7.4
Description: as §3

[5] = Plasma protein binding (rapid equilibrium dialysis), human; format: in vitro ADME; settings: pH 7.4, read-out: Plasma Protein Binding (converted)
Description: as §3

[6] = tested on: CYP1A2-mediated metabolism of MT; experiment: Static DDI model prediction of CBD's impact on MT exposure, rat; settings: input of static DDI model
Source text: (§1) (AUC when co-administered with the inhibitor) to AUC[contr] (AUC without the inhibitor).

[7] = Liver microsome protein binding, human; format: in vitro ADME; settings: liver microsomes, pH 7.4
Description: as §3

[8] = Plasma protein binding (rapid equilibrium dialysis), mouse; format: in vitro ADME; settings: pH 7.4
Description: as §3

[9] = Pharmacokinetics of MT, 6-HMT and CBD in SD rats (i.v. and oral); settings: for MRT last: MRT(0–t)
Description: The drugs were dissolved in the same manner as described previously, with an administration volume of 5 mL/kg for all groups. Blood samples were collected at the time points of pre-administration and 0.033 (only for the intravenous administration group), 0.083, 0.25, 0.5, 0.75, 1, 1.5, 2, 4, 6, 8, and 12 h post-administration.
(§2) The column temperature was set at 40 °C.

[10] = Liver microsome protein binding, rat; format: in vitro ADME; settings: liver microsomes, pH 7.4
PEPT1 = biological target: T1, PEPT1 (Homo sapiens, UniProt P46059); experiment: Uptake and uptake inhibition in MDCK/hPEPT1 cell model; format: cell-based; settings: 4 °C and 37 °C
T1 construct: host or cells: MDCK
T1 sequence (P46059 1-708): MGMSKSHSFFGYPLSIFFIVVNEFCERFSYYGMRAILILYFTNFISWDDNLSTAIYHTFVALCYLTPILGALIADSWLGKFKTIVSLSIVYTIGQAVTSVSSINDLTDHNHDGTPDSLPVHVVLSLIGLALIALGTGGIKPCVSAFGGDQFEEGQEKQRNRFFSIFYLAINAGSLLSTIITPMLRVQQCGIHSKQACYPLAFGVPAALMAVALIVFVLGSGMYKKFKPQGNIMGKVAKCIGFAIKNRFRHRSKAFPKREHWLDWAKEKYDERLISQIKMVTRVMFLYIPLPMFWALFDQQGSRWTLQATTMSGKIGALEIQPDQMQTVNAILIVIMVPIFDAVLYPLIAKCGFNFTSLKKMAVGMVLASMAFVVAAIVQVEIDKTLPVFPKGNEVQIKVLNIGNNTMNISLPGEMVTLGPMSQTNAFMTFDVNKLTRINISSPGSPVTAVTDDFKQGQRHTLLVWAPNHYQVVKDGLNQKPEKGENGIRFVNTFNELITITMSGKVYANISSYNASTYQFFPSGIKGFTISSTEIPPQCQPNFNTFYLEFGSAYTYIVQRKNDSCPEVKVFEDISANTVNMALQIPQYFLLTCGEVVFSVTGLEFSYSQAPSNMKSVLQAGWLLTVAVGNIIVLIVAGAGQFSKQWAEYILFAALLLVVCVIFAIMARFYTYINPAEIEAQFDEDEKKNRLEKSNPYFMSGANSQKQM
Description: MDCK-PEPT1 cells were seeded into 24-well plates at a density of approximately 5 × 10^5 cells per well. When the cell confluency reached 60–70%, the culture medium was aspirated, and the cells were rinsed twice with HBSS pre-warmed to 37 °C. […] After incubation at 37 °C for 10 min, the buffer was aspirated, and ice-cold HBSS was immediately added to terminate the reaction, followed by rinsing three times. After drying the residual liquid, 200 μL of pure water were added to each well, and the cells were lysed by repeated freezing–thawing in liquid nitrogen three times. The cell lysates were collected, and the protein content was determined by the BCA method.
Cell uptake assessment: The concentration of the analyte in cells was corrected using the protein concentration of the cell lysate in each well.(4) Conclysate=Concdrug/ConcProtein
The uptake rate (U, pmol/mg/min) of the compound was calculated following Formula (5).(5) U=Clysate/P×t where Clysate is the amount of drug in the cell lysate (ng); P is cellular protein content (mg); t is incubation time (min).
The uptake ratio of the compound was calculated following Formula (6)(6) UR=U/ UMOCK where UMOCK is the uptake rate in MOCK-MDCK cells (pmol/mg/min).
The inhibition ratio was calculated following Formula (7)(7) IR=(1−Uwith inhibitor−Umock with inhibitor/Uwithout inhibitor−Umock without inhibitor)×100%

[11] = Pharmacokinetics of MT, 6-HMT and CBD in beagles after oral administration; settings: male, beagle, dog, in vivo, po, 3 mg/kg, p.o.; for AUC(0-t) / AUC(0-inf) / Cmax / MRT last / Tmax: beagles; for MRT last: MRT(0–t); for half-life: t1/2, beagles
Description: Twelve male healthy adult beagles (weighing 10 ± 2 kg) were randomly divided into two groups. […] The drugs were dissolved in a physiological saline solution containing 5% castor oil, with an administration volume of 2 mL/kg. Blood samples were collected at the time points of pre-administration and 0.083, 0.25, 0.5, 0.75, 1, 1.5, 2, 4, 6, 8, and 12 h post-administration.
as §2

[12] = Pharmacokinetics of MT and CBD in rats after pre-administration of ABT
Description: Twelve SD rats were randomly divided into two groups. Both groups were first given an intragastric administration of 1-aminobenzotriazole (ABT) at a dose of 200 mg/kg. […] The administration volume for all groups was 5 mL/kg. […] Approximately 50 μL of venous blood were collected into heparin sodium anticoagulant tubes and placed on ice. The sample processing and storage methods were the same as described previously.
Subsequently, the resultant mixture was vortexed for 1 minute and centrifuged at 4 °C for 10 min at 18,800× g. […] The lowest limit of quantification (LLOQ) was established at 2 ng/mL.
Kromasil 100-5-C8 (2.1 × 50 mm) was selected for the separation of samples. The mobile phase consisted of solvent A (water with 0.1% formic acid and 5 mM ammonium acetate) and solvent B (methanol with 0.1% formic acid). […] The column temperature was set at 40 °C. The two eluents were 0.1% formic acid and 5 mM ammonium acetate in water (A) and 0.1% formic acid in methanol (B). […] The main mass spectrometry detection parameters were: dry gas 10 L/min, heated gas 10 L/min, collision gas 270 kPa, ion source temperature 300 °C, desolvation temperature 250 °C, and heating module temperature 400 °C.
Pharmacokinetic parameters: GraphPad Prism 10.1 software was utilized to draw the curves. Noncompartmental analysis was selected to calculate the major PK parameters, including clearance (CL), volume (V), half-life (t1/2), peak concentration (Cmax), and area under the curve (AUC), using WinNonlin 8.1.

[13] = tested on: CYP1A2-mediated metabolism of MT; experiment: Static DDI model prediction of CBD's impact on MT exposure, beagle; parameters: species or system beagle dog; settings: input of static DDI model
Source text: as §1

[14] = male, Sprague-Dawley, rat, in vivo, po, 5 mg/kg, rats, p.o., MT + CBD (5 + 5) mg/kg
[15] = male, Sprague-Dawley, rat, in vivo, po, 5 mg/kg, rats, p.o., MT + CBD (5 + 20) mg/kg
[16] = male, Sprague-Dawley, rat, in vivo, po, 5 mg/kg, rats, p.o., MT + Vehicle 5 mg/kg
[17] = Sprague-Dawley, rat, in vivo, po, 5 mg/kg

## COc1ccc2[nH]cc(CCNC(C)=O)c2c1 [MT, Melatonin]
[1]
  fraction unbound at 6 h: 0.364
[2]
  fraction unbound at 6 h: 0.78
[3]
  fraction unbound at 6 h: 0.315
[4]
  fraction unbound at 6 h: 0.425
[5]
  fraction unbound at 6 h: 0.388
[6]
  fm(CYP1A2), proportion of MT metabolized by CYP1A2: 0.92
[7]
  fraction unbound at 6 h: 0.979
[8]
  fraction unbound at 6 h: 0.451
[9]; male, Sprague-Dawley, rat, in vivo, iv, 1 mg/kg, AUC(0–t), rats, i.v., MT + CBD (1 + 1) mg/kg
  AUC(0-t): 260 ng·h/mL
[9]; male, Sprague-Dawley, rat, in vivo, iv, 1 mg/kg, rats, i.v., MT + CBD (1 + 1) mg/kg
  MRT last: 10.2 min
[9]; male, Sprague-Dawley, rat, in vivo, po, 5 mg/kg
  bioavailability: 20.5%
[9]; male, Sprague-Dawley, rat, in vivo, po, 5 mg/kg, AUC(0–1h), rats, p.o., MT + CBD (5 + 5) mg/kg
  AUC(0-t): 114 ng·h/mL
[9]; male, Sprague-Dawley, rat, in vivo, po, 5 mg/kg, AUC(0–1h), rats, p.o., MT + CBD (5 + 20) mg/kg
  AUC(0-t): 65.2 ng·h/mL
[9]; male, Sprague-Dawley, rat, in vivo, po, 5 mg/kg, AUC(0–1h), rats, p.o., MT + Vehicle 5 mg/kg
  AUC(0-t): 241 ng·h/mL
[9]; male, Sprague-Dawley, rat, in vivo, po, 5 mg/kg, AUC(0–t), rats, p.o., MT + CBD (5 + 5) mg/kg
  AUC(0-t): 138 ng·h/mL
[9]; male, Sprague-Dawley, rat, in vivo, po, 5 mg/kg, AUC(0–t), rats, p.o., MT + CBD (5 + 20) mg/kg
  AUC(0-t): 121 ng·h/mL
[9]; male, Sprague-Dawley, rat, in vivo, po, 5 mg/kg, AUC(0–t), rats, p.o., MT + Vehicle 5 mg/kg
  AUC(0-t): 267 ng·h/mL
[9]; [14]
  Cmax: 212 ng/mL
  MRT last: 39 min
  Tmax: 19.8 min
[9]; [15]
  Cmax: 99 ng/mL
  MRT last: 79.8 min
  Tmax: 8.4 min
[9]; [16]
  Cmax: 588 ng/mL
  MRT last: 40.2 min
  Tmax: 10.2 min
[9]; rats, p.o., CBD 20 mg/kg with MT 0, 5 or 20 mg/kg
  effect of co-administered MT on pharmacokinetic parameters of CBD: does not produce obvious pharmacokinetic-based interactions with CBD
[9]; rats, p.o., MT + CBD (5 + 5) mg/kg
  t1/2: 0.66 (0.14) h
[9]; rats, p.o., MT + CBD (5 + 20) mg/kg
  t1/2: 1.80 (0.94) * h
[9]; rats, p.o., high CBD dose
  MT total exposure with CBD, as percent of MT alone: 45%
[10]
  fraction unbound at 6 h: 0.972
PEPT1
  uptake rate of MT, MOCK cells vs transfected cells: no difference
[11]; MT + CBD (3 + 3) mg/kg
  AUC(0-t): 2540 ng·h/mL
  AUC(0-inf): 2550 ng·h/mL
  Cmax: 1360 ng/mL
  MRT last: 99.6 min
  Tmax: 42.6 min
  half-life: 55.2 min
[11]; MT + Vehicle 3 mg/kg
  AUC(0-t): 602 ng·h/mL
  AUC(0-inf): 612 ng·h/mL
  Cmax: 1080 ng/mL
  MRT last: 30 min
  Tmax: 13.2 min
  half-life: 19.8 min
[12]; ABT-treated rats
  AUC of MT reduced by co-administration of CBD: 2.29 fold
  Cmax of MT reduced by co-administration of CBD: 2.3 fold
[12]; [17]
  AUC(0-t): 8840 ng·h/mL
  Cmax: 2100 ng/mL
  Tmax: 30 min
  half-life: 78.6 min
[13]
  fm(CYP1A2), proportion of MT metabolized by CYP1A2: 0.92
